{"source": "patent US6340702B1", "about": "(priority 1996, dated 2002)", "key": {"[1]": {"tested_on": "mouse-acclimated influenza virus A/PR/8/34 strain", "parameters": "species or system mice (BALB/C)", "settings": "in vivo"}, "[2]": {"tested_on": "Influenza virus strain A/Yamagata/32189(H1N1)", "experiment": "microbe, parasite or virus in culture", "assay_type": "cell-based"}, "[3]": {"tested_on": "mouse-acclimated influenza virus A/PR/8/34 strain", "parameters": "species or system mice (BALB/C)", "settings": "in vivo", "remark": "listed apart in the source"}, "[4]": {"tested_on": "mouse-acclimated influenza virus A/PR/8/34 strain", "parameters": "species or system mice (BALB/C)", "settings": "in vivo", "remark": "listed apart in the source"}, "[5]": {"molecular_target": "crude influenza virus sialidase (Influenza A virus, UniProt P03468)", "sequence (P03468 whole entry, looked up)": "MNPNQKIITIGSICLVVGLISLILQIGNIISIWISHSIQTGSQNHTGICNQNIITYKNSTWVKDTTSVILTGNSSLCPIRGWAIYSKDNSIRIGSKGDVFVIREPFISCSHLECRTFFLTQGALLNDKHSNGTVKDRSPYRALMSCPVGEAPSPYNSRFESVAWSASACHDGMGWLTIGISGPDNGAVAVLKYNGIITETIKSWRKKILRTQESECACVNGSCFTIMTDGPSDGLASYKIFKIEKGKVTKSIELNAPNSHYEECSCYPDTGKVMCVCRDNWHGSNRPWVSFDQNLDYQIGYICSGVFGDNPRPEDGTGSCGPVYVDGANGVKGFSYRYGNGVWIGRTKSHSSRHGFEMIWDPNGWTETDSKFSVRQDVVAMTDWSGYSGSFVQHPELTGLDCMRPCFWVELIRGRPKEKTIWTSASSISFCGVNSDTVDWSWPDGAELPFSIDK", "settings": "Table 5; absorbance at 415 nm reduced by 50%, pH 6.5, 37° C., 20 minutes", "description": "In this experiment, a sample of influenza virus strain A/PR/8/34(H1N1) was dissolved by means of a surfactant, after which the virus membrane fraction was purified by centrifugation.\nAn enzyme solution was first prepared such that the final enzyme activity was 0.001 1 units/ml (1 unit corresponds to that amount of enzyme which hydrolyzes 1 μmole of substrate in 1 minute). Also prepared beforehand were aqueous solutions of test compound in various concentrations; an aqueous solution of the substrate to a concentration of 33 μg/ml, and a 20 mM 2-(N-morpholino)-ethanesulfonic acid buffer (pH 6.5) containing 50 mM calcium chloride. These solutions were combined to prepare a mixture having a final volume of 150 μl, and which was then left to stand at 37° C. for 20 minutes."}}, "note": "Several values for one entry are separate records, joined by “and”; a condition that tells them apart may be missing. Equal entries are not always repeated. Structures can show the parent of a compound that is named as a salt. Where two headings read alike, the source gives them in different places."}
{"smiles": "CC(=O)NC1C(NC(=N)N)C=C(C(=O)O)O[C@H]1C(O)C(O)CO", "note": "(stereo partly drawn) [Compound A, reference compound]", "values": [{"measurement": "number of surviving mice divided by the number of test mice, Day 10", "setting": "[1]", "result": "dead"}, {"measurement": "IC50", "setting": "[2]; unidentified influenza virus, H1N1, MDCK, 40 h, Table 3, plaque number reduced to 50%, MDCK cells", "result": 4.7, "unit": "nM"}, {"measurement": "IC50", "setting": "[2]; unidentified influenza virus, H1N1, MDCK, 40 h, Table 4, plaque number reduced to 50%, MDCK cells", "result": 11, "unit": "nM"}, {"measurement": "number of surviving mice divided by the number of test mice, Day 3", "setting": "[3]", "result": "3/7"}, {"measurement": "number of surviving mice divided by the number of test mice, Day 10", "setting": "[3]", "result": "dead"}, {"measurement": "number of surviving mice divided by the number of test mice, Day 8", "setting": "[4]", "result": "one"}]}
{"smiles": "CCCCCCCCCCCCCCOC(=O)C1=CC(NC(=N)N)C(NC(C)=O)[C@H](C(O)C(O)CO)O1.O=C(O)C(F)(F)F", "note": "(stereo partly drawn) [Example 1′, Myristyl 5-acetamido-2,3,4,5-tetradeoxy-4-guanidino-D-glycero-D-galacto-non-2-enopyranosoate trifluoroacetic acid salt]", "values": [{"measurement": "influenza infection therapeutic effects compared with Compound A", "setting": "[1]", "result": "superior to those of Compound A"}, {"measurement": "number of surviving mice divided by the number of test mice, Day 8", "setting": "[1]", "result": "4/12"}, {"measurement": "influenza infection therapeutic effects compared with Compound A", "setting": "[3]", "result": "superior to those of Compound A"}, {"measurement": "number of surviving mice divided by the number of test mice, Day 3", "setting": "[3]", "result": "5/8"}, {"measurement": "number of surviving mice divided by the number of test mice, Day 6", "setting": "[3]", "result": "8/8"}]}
{"smiles": "CCCCCCOC(=O)C1=CC(NC(=N)N)C(NC(C)=O)[C@H](C(O)C(O)CO)O1.O=C(O)C(F)(F)F", "note": "(stereo partly drawn) [Example 2′, Hexyl 5-acetamido-2,3,4,5-tetradeoxy-4-guanidino-D-glycero-D-galacto-non-2-enopyranosoate trifluoroacetic acid salt]", "values": [{"measurement": "influenza infection therapeutic effects compared with Compound A", "setting": "[3]", "result": "superior to those of Compound A"}, {"measurement": "number of surviving mice divided by the number of test mice, Day 3", "setting": "[3]", "result": "2/8"}, {"measurement": "number of surviving mice divided by the number of test mice, Day 6", "setting": "[3]", "result": "8/8"}, {"measurement": "number of surviving mice divided by the number of test mice, Day 10", "setting": "[3]; trifluoroacetic acid salt", "result": "1 and 1/8"}]}
{"smiles": "CCCCCCCCCCCCCC(=O)OCC(O)C(O)[C@@H]1OC(C(=O)O)=CC(NC(=N)N)C1NC(C)=O.O=C(O)C(F)(F)F", "note": "(stereo partly drawn) [Example 3′, 5-Acetamido-2,3,4,5-tetradeoxy-4-guanidino-9-O-myristoyl-D-glvcero-D-galacto-non-2-enopyranosoic acid trifluoroacetic acid salt]", "values": [{"measurement": "number of surviving mice divided by the number of test mice, Day 6", "setting": "[4]", "result": "10/10"}, {"measurement": "number of surviving mice divided by the number of test mice, Day 8", "setting": "[4]", "result": "10/10"}]}
{"smiles": "CCCCCC(=O)OCC(O)C(O)[C@@H]1OC(C(=O)O)=CC(NC(=N)N)C1NC(C)=O.O=C(O)C(F)(F)F", "note": "(stereo partly drawn) [Example 4′, 5-Acetamido-2,3,4,5-tetradeoxy-4-guanidino-9-O-hexanoyl-D-glycero-D-galacto-non-2-enopyranosoic acid trifluoroacetic acid salt]", "values": [{"measurement": "number of surviving mice divided by the number of test mice, Day 6", "setting": "[4]", "result": "10/10"}, {"measurement": "number of surviving mice divided by the number of test mice, Day 8", "setting": "[4]", "result": "6/10"}]}
{"smiles": "CCCCCCCC(=O)OCC(O)C(O)[C@@H]1OC(C(=O)O)=CC(NC(=N)N)C1NC(C)=O.O=C(O)C(F)(F)F", "note": "(stereo partly drawn) [Example 5′, 5-Acetamido-2,3,4,5-tetradeoxy-4-guanidino-9-O-octanoyl-D-glycero-D-galacto-non-2-enopyranosoic acid trifluoroacetic acid salt]", "values": [{"measurement": "number of surviving mice divided by the number of test mice, Day 6", "setting": "[4]", "result": "11/11"}, {"measurement": "number of surviving mice divided by the number of test mice, Day 8", "setting": "[4]", "result": "10/11"}]}
{"smiles": "CCCCCCCCCC(=O)OCC(O)C(O)[C@@H]1OC(C(=O)O)=CC(NC(=N)N)C1NC(C)=O.O=C(O)C(F)(F)F", "note": "(stereo partly drawn) [Example 6′, 5-Acetamido-2,3,4,5-tetradeoxy-4-guanidino-9-O-decanoyl-D-glycero-D-galacto-non-2-enopyranosoic acid trifluoroacetic acid salt]", "values": [{"measurement": "number of surviving mice divided by the number of test mice, Day 6", "setting": "[4]", "result": "11/11"}, {"measurement": "number of surviving mice divided by the number of test mice, Day 8", "setting": "[4]", "result": "10/11"}]}
{"smiles": "CCCCCCCCCCCCCCCC(=O)OCC(O)C(O)[C@@H]1OC(C(=O)O)=CC(NC(=N)N)C1NC(C)=O.O=C(O)C(F)(F)F", "note": "(stereo partly drawn) [Example 7′, 5-Acetamido-2,3,4,5-tetradeoxy-4-guanidino-9-O-palmitoyl-D-glycero-D-galacto-non-2-enopyranosoic acid trifluoroacetic acid salt]", "values": [{"measurement": "number of surviving mice divided by the number of test mice, Day 6", "setting": "[4]", "result": "10/10"}, {"measurement": "number of surviving mice divided by the number of test mice, Day 8", "setting": "[4]", "result": "3/10"}]}
{"smiles": "CCCCCCCCCCCC(=O)OCC(O)C(O)[C@@H]1OC(C(=O)O)=CC(NC(=N)N)C1NC(C)=O.O=C(O)C(F)(F)F", "note": "(stereo partly drawn) [Example 8′, 5-Acetamido-2,3,4,5-tetradeoxy-4-guanidino-9-O-dodecanoyl-D-glycero-D-galacto-non-2-enopyranosoic acid trifluoroacetic acid salt]", "values": [{"measurement": "number of surviving mice divided by the number of test mice, Day 6", "setting": "[4]", "result": "11/11"}, {"measurement": "number of surviving mice divided by the number of test mice, Day 8", "setting": "[4]", "result": "2/11"}]}
{"smiles": "CCCCCCCCCCCCCCCCCC(=O)OCC(O)C(O)[C@@H]1OC(C(=O)O)=CC(NC(=N)N)C1NC(C)=O.O=C(O)C(F)(F)F", "note": "(stereo partly drawn) [Example 9′, 5-Acetamido-2,3,4,5-tetradeoxy-4-guanidino-9-O-octadecanoyl-D-glycero-D-galacto-non-2-enopyranosoic acid trifluoroacetic acid salt]", "values": [{"measurement": "number of surviving mice divided by the number of test mice, Day 6", "setting": "[4]", "result": "10/10"}, {"measurement": "number of surviving mice divided by the number of test mice, Day 8", "setting": "[4]", "result": "4/10"}]}
{"smiles": "CCCCCCCCCCCCCCCCOC(=O)C1=CC(NC(=N)N)C(NC(C)=O)[C@H](C(O)C(O)CO)O1.O=C(O)C(F)(F)F", "note": "(stereo partly drawn) [Example 10′, Cetyl 5-acetamido-2,3,4,5-tetradeoxy-4-guanidino-D-glycero-D-galacto-non-2-enopyranosoate trifluoroacetic acid salt]", "values": [{"measurement": "influenza infection therapeutic effects compared with Compound A", "setting": "[1]", "result": "superior to those of Compound A"}, {"measurement": "number of surviving mice divided by the number of test mice, Day 8", "setting": "[1]", "result": "10/12"}]}
{"smiles": "CCCCCCCCCCCCCCCCCCOC(=O)C1=CC(NC(=N)N)C(NC(C)=O)[C@H](C(O)C(O)CO)O1.O=C(O)C(F)(F)F", "note": "(stereo partly drawn) [Example 11′, Stearyl 5-acetamido-2,3,4,5-tetradeoxy-4-guanidino-D-glycero-D-galacto-non-2-enopyranosoate trifluoroacetic acid salt]", "values": [{"measurement": "influenza infection therapeutic effects compared with Compound A", "setting": "[1]", "result": "superior to those of Compound A"}, {"measurement": "number of surviving mice divided by the number of test mice, Day 8", "setting": "[1]", "result": "11/11"}]}
{"smiles": "CO[C@@H]([C@@H]1OC(C(=O)O)=C[C@H](N=C(N)N)[C@H]1NC(C)=O)[C@H](O)CO", "note": "[Example 28, 5-Acetamido-4-guanidino-2,3,4,5,7-pentadeoxy-7-methoxy-D-glycero-D-galacto-non-2-enopyranosoic acid trifluoroacetic acid salt]", "values": [{"measurement": "IC50", "setting": "[2]; read-out: IC50", "result": 1.7, "unit": "nM"}]}
{"smiles": "CCO[C@@H]([C@@H]1OC(C(=O)O)=C[C@H](N=C(N)N)[C@H]1NC(C)=O)[C@H](O)CO", "note": "[Example 30, 5-Acetamido-4-guanidino-2,3,4,5,7-pentadeoxy-7-ethoxy-D-glycero-D-galacto-non-2-enoic acid trifluoroacetic acid salt]", "values": [{"measurement": "IC50", "setting": "[2]; read-out: IC50", "result": 0.8, "unit": "nM"}, {"measurement": "IC50", "setting": "[5]", "result": 7, "unit": "nM"}]}
